System: Bacillus subtilis ATCC 6633
Assay: Filter disc bioassay, zones of inhibition in B. subtilis lawn
Assay type: cell-based
Settings: 10-fold dilution series of 1.1 mg in 200 μl methanol, 10 μl per filter disc; indicator strain Bacillus subtilis ATCC 6633
Procedure: Cosmid no 7 which has been isolated from a Streptomyces fradiae cosmid library, was kindly provided by J. Corts. E. coli transformants were selected with 100 ug/ml ampicillin. The Saccharopolyspora erythraea NRRL 2338-red variant strain (Hessler et al., Appl. Microbiol. Biotechnol. (1997) 47:398-404) was kindly provided by J. M. Weber and was routinely maintained on M1-102 agar (Kaneda et al. J. Biol. Chem. (1962) 237:322-327), R2T20 (Yamamoto et al. J. Antibiot. (1986) 34:1304-1313), R2T2 (same as R2T (Weber et al. J. Bacterial. (1985)164:425-433), but without peptone), and TSB (Difco) for liquid cultures at 30° C. Bacillus subtilis ATCC 6633 was used in bioassays to assess erythromycin production as described (Gaisser et al. (1997), supra). […] Both metabolites (10 μl of 10 mM stock solution) were applied to agar wells cut into the S. erythraea lawn and incubated at 30° C. overnight as described (Gaisser et al. (1997) supra) and the development of zones of inhibition in the B. subtilis lawn around S. erythraea colonies was assessed. […]
Bacillus subtilis ATCC 6633 was used in bioassays as described previously (Gaisser et al., 1998). […] The development of zones of inhibition in the B. subtilis lawn was assessed.

Compound: CCC1OC(=O)C(C)C(OC2OC(C)C(O)C(O)C2OC)C(C)C(OC2OC(C)CC(N(C)C)C2O)C(C)(O)CC(C)C(=O)C(C)C(O)C1C (stereo not shown) [3-O-(2′-O-methylrhamnosyl)erythromycin D]
- bioactivity, fold less compared to erythromycin A (size of the halos around filter discs): about 100 fold
